From patent publication US12421252B2, “Spiro (isobenzofuranazetidine) compounds for the treatment of autoimmune disease” (Hoffmann-La Roche Inc., priority 2020, dated 2025)

How the values were obtained:
CYP3A4 = target: T1, CYP3A4 (Homo sapiens, UniProt P08684); experiment: CYP inhibition assay in human liver microsome, CYP3A4; type: in vitro ADME; details: percentage inhibition, substrate Midazolam 5 μM, <0: not or weak inhibitor
T1 construct: tissue BD-Gentest 452117; host or cells: human liver microsomes
T1 sequence (P08684 whole entry): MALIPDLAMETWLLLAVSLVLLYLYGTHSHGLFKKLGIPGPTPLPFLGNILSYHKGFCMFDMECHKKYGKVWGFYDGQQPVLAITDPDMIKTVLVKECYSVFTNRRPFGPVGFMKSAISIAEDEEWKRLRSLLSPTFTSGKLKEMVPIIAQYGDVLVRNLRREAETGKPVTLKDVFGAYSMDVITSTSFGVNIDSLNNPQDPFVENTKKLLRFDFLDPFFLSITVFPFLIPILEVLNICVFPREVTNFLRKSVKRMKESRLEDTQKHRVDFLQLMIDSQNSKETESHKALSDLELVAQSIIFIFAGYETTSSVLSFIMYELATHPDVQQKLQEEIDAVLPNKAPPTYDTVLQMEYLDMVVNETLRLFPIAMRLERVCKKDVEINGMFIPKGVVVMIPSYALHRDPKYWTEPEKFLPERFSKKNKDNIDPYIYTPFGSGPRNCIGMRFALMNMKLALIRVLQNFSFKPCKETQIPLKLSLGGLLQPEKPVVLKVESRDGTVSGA
Method: (§1) This is a high throughput screening assay used for assessment of reversible inhibition of CYP2C9, CYP2D6, and CYP3A4 activity of test compounds in human liver microsome (HLM) in early discovery stage.
(§2) Procedure 10 mM DMSO stock solutions of test compounds were diluted in DMSO to generate 2 mM intermediate stock solution. 250 nL of intermediate stock solution were transferred in duplicate into 3 separate 384 well microtitre plates (assay-ready plates). A mixture of HLM and each substrate was made up. 45 μL of HLM substrate mix was then transferred to each well of an assay ready plate and mixed. The negative (solvent) and positive controls (standard inhibitor for each CYP) were included in each assay ready plate. The assay ready plate was warmed to 37° C. in an incubator over 10 minutes. 5 μL pre-warmed NADPH regenerating system was added to each incubation well to start the reaction. Final incubation volume was 50 μL. The assay plate then was placed back in the 37° C. incubator. After incubation (10 minutes for CYP2D6) for 5 minutes, incubates were quenched by addition of 50 μL 100% acetonitrile containing internal standards (400 ng/mL 13C6-4′-OH-Diclofenac, 20 ng/mL D3-Dextrorphan and 20 ng/mL D4-1′OH-Midazolam). The supernatants were collected for RapidFire/MS/MS analysis.
(§3) RapidFire online solid phase extraction/sample injection system (Agilent) coupled with API4000 triple quadrupole mass spectrometer (AB Sciex) were used for sample analysis. The mobile phase composed of acetonitrile and water supplemented with 0.1% formic acid. A C4 solid phase extraction cartridge is used for sample separation. MS detection is achieved in positive ion MRM mode.
(§4) Data analysis Peak areas for substrate, metabolite and internal standard are determined using the RapidFire integrator software (version 3.6.12009.12296). Peak area ratios (PAR) of metabolite and internal standard (stable-labelled metabolite) are then calculated. The measurement window for each experiment is then defined: PAR (0% activity)=average PAR for all incubations containing concentrated inhibitor; Par (100% activity)=average PAR for all incubations containing no inhibitor (DMSO controls); % Activity (test inhibitor)=[PAR (test inhibitor)-PAR (0% activity)]/[PAR (100% activity)-PAR (0% activity)]; % Inhibition (test inhibitor)=100-% Activity (test inhibitor).

CYP2D6 = target: T2, CYP2D6 (Homo sapiens, UniProt P10635); experiment: CYP inhibition assay in human liver microsome, CYP2D6; type: in vitro ADME; details: percentage inhibition, substrate Dextromethorphan 5 μM, <0: not or weak inhibitor
T2 construct: tissue BD-Gentest 452117; host or cells: human liver microsomes
T2 sequence (P10635 whole entry): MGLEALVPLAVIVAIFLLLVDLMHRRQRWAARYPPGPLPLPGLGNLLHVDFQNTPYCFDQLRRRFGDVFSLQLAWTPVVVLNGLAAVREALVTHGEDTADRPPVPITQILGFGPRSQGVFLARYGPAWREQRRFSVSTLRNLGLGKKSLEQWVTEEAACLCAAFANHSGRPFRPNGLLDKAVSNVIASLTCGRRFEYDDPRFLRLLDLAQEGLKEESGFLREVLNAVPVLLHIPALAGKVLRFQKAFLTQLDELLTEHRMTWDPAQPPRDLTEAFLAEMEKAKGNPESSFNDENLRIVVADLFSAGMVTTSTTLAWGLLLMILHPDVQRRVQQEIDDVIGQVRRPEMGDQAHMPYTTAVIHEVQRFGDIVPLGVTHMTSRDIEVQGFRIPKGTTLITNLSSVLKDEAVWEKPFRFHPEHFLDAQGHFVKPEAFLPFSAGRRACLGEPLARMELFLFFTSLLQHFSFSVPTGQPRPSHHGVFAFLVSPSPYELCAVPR
Method: as §1, §2, §3, §4

CYP2C9 = target: T3, CYP2C9 (Homo sapiens, UniProt P11712); experiment: CYP inhibition assay in human liver microsome, CYP2C9; type: in vitro ADME; details: percentage inhibition, substrate Diclofenac 5 μM, <0: not or weak inhibitor
T3 construct: tissue BD-Gentest 452117; host or cells: human liver microsomes
T3 sequence (P11712 whole entry): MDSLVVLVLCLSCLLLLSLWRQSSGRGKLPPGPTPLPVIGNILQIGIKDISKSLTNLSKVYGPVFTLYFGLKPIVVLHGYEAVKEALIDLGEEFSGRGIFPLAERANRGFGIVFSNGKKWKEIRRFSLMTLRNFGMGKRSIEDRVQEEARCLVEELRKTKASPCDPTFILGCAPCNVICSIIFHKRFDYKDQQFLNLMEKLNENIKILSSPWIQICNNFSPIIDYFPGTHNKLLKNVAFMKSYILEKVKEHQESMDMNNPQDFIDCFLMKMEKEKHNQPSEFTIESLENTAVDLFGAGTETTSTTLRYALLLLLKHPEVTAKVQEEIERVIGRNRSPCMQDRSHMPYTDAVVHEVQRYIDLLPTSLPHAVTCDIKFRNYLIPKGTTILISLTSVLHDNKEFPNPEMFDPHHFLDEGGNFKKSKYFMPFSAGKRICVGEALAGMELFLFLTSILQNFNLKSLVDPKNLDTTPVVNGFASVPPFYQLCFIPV
Method: as §1, §2, §3, §4

hERG channel = target: T4, hERG channel (Homo sapiens, UniProt Q12809); experiment: hERG channel inhibition assay (patch-clamp, CHO hERG cells); type: cell-based; details: CHO hERG cells, whole-cell patch-clamp; for IC20: human, CHO cells stably expressing hERG
T4 construct: expressed in transfected cells
T4 sequence (Q12809 whole entry): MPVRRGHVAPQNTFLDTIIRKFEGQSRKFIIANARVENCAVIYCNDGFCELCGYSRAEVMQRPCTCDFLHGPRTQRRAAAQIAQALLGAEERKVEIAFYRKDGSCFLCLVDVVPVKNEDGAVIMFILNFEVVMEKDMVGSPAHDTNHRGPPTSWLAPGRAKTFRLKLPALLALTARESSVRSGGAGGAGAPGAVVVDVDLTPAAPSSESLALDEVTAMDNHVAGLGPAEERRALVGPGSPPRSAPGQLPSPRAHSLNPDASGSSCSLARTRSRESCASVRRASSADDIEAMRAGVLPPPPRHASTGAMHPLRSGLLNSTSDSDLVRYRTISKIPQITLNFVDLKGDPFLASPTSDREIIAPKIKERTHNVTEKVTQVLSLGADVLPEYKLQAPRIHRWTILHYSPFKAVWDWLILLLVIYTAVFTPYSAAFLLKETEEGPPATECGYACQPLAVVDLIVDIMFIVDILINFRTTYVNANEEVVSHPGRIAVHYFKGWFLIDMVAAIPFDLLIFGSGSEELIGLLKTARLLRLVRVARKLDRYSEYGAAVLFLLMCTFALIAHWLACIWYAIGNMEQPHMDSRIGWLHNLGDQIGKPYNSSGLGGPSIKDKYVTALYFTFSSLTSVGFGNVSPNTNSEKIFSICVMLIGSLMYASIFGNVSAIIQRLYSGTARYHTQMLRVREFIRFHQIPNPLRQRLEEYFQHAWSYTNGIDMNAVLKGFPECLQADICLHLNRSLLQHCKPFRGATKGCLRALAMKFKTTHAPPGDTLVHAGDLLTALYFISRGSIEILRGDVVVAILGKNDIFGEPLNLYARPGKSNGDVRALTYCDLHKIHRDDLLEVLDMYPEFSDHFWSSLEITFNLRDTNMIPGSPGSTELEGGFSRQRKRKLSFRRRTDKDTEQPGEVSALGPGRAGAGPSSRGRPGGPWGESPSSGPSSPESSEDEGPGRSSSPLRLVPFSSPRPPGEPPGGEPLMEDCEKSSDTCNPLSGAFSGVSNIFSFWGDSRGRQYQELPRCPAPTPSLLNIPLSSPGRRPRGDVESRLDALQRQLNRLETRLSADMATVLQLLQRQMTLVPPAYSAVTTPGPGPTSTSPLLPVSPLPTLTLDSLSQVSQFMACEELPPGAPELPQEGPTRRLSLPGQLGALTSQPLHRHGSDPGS
Method: hERG Channel Inhibition Assay:
The hERG K+ channels were cloned in humans and stably expressed in a CHO (Chinese hamster ovary) cell line. CHOhERG cells were used for patch-clamp (voltage-clamp, whole-cell) experiments. Cells were stimulated by a voltage pattern to activate hERG channels and conduct IKhERG Currents (rapid delayed outward rectifier potassium current of the hERG channel). After the cells were stabilized for a few minutes, the amplitude and kinetics of IKhERG were recorded at a stimulation frequency of 0.1 Hz, (6 bpm). Thereafter, the test compound was added to the preparation at increasing concentrations. For each concentration, an attempt was made to reach a steady-state effect, usually, this was achieved within 3-10 min at which time the next highest concentration was applied. The amplitude and kinetics of IKhERG are recorded in each concentration of the drug which were compared to the control values (taken as 100%). (references: Redfern W S, Carlsson L, Davis A S, Lynch W G, MacKenzie I, Palethorpe S, Siegl P K, Strang I, Sullivan A T, Wallis R, Camm A J, Hammond T G. 2003; Relationships between preclinical cardiac electrophysiology, clinical QT interval prolongation and torsade de pointes for a broad range of drugs: evidence for a provisional safety margin in drug development. Cardiovasc. Res. 58:32-45, Sanguinetti M C, Tristani-Firouzi M. 2006; hERG potassium channels and cardiac arrhythmia. Nature 440:463-469, Webster R, Leishman D, Walker D. 2002; Towards a drug concentration effect relationship for QT prolongation and torsades de pointes. Curr. Opin. Drug Discov. Devel. 5:116-26).

hTLR9 = target: T5, hTLR9 (Homo sapiens, UniProt Q9NR96); parameters: host or cells: HEK; details: data disclosed in US20150105370; read-out: HEK/hTLR9 IC50; cited from earlier work
T5 sequence (Q9NR96 26-1032): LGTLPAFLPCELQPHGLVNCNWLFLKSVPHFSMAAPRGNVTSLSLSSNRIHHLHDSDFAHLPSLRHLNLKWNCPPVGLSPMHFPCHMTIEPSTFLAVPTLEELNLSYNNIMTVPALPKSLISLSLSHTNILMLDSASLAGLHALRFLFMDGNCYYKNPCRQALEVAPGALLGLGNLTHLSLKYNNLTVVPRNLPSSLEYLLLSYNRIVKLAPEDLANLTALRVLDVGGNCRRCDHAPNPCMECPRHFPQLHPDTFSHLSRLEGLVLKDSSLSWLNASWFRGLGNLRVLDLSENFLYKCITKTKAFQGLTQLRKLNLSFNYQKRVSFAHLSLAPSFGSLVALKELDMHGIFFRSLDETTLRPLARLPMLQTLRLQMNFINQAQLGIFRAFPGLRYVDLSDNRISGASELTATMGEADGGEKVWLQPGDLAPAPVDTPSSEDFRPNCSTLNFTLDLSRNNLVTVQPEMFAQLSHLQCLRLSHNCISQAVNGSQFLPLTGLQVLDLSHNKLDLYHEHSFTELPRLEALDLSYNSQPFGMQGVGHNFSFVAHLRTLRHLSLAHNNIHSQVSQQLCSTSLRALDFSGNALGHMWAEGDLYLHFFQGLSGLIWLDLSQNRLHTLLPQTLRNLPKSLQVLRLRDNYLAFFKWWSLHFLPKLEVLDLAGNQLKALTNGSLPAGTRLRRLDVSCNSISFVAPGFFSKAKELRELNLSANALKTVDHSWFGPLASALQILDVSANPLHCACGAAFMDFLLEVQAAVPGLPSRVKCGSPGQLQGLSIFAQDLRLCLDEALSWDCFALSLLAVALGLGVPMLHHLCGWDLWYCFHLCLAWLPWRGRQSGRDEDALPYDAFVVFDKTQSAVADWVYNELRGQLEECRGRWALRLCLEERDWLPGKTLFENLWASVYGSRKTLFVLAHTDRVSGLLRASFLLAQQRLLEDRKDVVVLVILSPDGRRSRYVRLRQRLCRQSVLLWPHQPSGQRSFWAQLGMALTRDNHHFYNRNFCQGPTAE

human TLR8 = target: T6, human TLR8 (Homo sapiens, UniProt Q9NR97); experiment: HEK293-Blue-hTLR-8 cells assay; type: cell-based; details: HEK293-Blue-hTLR8 cells, R848 stimulation, 20 hrs, SEAP reporter; read-out: HEK/hTLR8 IC50
T6 sequence (Q9NR97 27-1041): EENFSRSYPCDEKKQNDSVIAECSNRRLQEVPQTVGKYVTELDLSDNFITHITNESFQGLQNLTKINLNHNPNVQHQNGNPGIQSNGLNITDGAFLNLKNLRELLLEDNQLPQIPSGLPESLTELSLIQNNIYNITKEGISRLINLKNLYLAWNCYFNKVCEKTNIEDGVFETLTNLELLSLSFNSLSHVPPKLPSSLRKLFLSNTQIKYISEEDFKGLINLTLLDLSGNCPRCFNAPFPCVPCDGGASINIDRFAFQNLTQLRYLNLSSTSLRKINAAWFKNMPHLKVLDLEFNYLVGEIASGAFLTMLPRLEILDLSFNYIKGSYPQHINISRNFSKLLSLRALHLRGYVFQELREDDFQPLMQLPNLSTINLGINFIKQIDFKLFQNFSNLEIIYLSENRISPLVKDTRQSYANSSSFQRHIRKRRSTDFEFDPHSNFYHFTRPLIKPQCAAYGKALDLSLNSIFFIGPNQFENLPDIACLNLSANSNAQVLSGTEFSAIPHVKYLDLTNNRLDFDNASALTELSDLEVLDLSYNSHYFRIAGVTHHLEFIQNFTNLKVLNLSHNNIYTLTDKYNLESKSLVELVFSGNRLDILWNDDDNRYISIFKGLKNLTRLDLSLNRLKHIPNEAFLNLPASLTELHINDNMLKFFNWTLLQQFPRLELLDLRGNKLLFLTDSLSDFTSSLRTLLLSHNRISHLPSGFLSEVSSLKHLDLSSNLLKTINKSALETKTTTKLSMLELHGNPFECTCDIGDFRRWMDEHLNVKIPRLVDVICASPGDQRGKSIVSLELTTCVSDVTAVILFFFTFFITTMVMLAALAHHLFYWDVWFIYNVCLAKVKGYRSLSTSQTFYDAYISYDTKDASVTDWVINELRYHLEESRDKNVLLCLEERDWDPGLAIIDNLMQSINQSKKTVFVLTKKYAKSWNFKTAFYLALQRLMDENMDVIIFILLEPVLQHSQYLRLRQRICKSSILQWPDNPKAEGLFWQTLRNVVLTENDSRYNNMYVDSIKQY
Excerpt: HEK293-Blue-hTLR-8 cells assay:
A stable HEK293-Blue-hTLR-8 cell line was purchased from InvivoGen (Cat. #: hkb-htlr8, San Diego, California, USA). These cells were originally designed for studying the stimulation of human TLR8 by monitoring the activation of NF-κB. A SEAP (secreted embryonic alkaline phosphatase) reporter gene was placed under the control of the IFN-β minimal promoter fused to five NF-κB and AP-1-binding sites. The SEAP was induced by activating NF-κB and AP-1 via stimulating HEK-Blue hTLR8 cells with TLR8 ligands. Therefore the reporter expression was declined by TLR8 antagonist under the stimulation of a ligand, such as R848, for incubation of 20 hrs. The cell culture supernatant SEAP reporter activity was determined using QUANTI-Blue™kit (Cat. #: rep-qb1, Invivogen, San Diego, Ca, USA) at a wavelength of 640 nm, a detection medium that turns purple or blue in the presence of alkaline phosphatase.
HEK293-Blue-hTLR8 cells were incubated at a density of 250,000˜450,000 cells/mL in a volume of 170 μL in a 96-well plate in Dulbecco's Modified Eagle's medium (DMEM) containing 4.5 g/L glucose, 50 U/mL penicillin, […], […], 2 mM L-glutamine, 10% (v/v) heat-inactivated fetal bovine serum with addition of 20 μL test compound in a serial dilution in the presence of final DMSO at 1% and 10 μL of 60 uM R848 in above DMEM, perform incubation under 37° C. in a CO2 incubator for 20 hrs. Then 20 μL of the supernatant from each well was incubated with 180 μL Quanti-blue substrate solution at 37° C. for 2 hrs and the absorbance was read at 620-655 nm using a spectrophotometer. The signaling pathway that TLR8 activation leads to downstream NF-κB activation has been widely accepted, and therefore similar reporter assay was modified for evaluating TLR8 antagonist.

With `C[C@@H]1CN(c2ccc(C#N)n3nccc23)C[C@H](CN2CC3(C2)OCc2cc(N4CC5(CN(C)C5)C4)ccc23)O1` [Example 8, 4-[(2R,6S)-2-methyl-6-[[6-(6-methyl-2,6-diazaspiro[3.3]heptan-2-yl)spiro[1H-isobenzofuran-3,3′-azetidine]-1′-yl]methyl]morpholin-4-yl]pyrazolo[1,5-a]pyridine-7-carbonitrile] the “CYP (%) 3A4” value (CYP3A4) was −8.5%, the “CYP (%) 2D6” value (CYP2D6) was 5% and the “CYP (%) 2C9” value (CYP2C9) was −8.5%.
With `[2H]c1ccc2c(N3C[C@H](CN4CC5(C4)OCc4cc(N6CC(N)C6)ccc45)O[C@H](C)C3)ccc(C#N)c2n1` [Example 14, 5-[(2S,6R)-2-[[6-(3-aminoazetidin-1-yl)spiro[1H-isobenzofuran-3,3′-azetidine]-1′-yl]methyl]-6-methyl-morpholin-4-yl]-2-deuterio-quinoline-8-carbonitrile] the IC50 (hERG channel) was > 20 µM and the IC20 (hERG channel) was > 10 µM.
For `[2H]c1ccc2c(N3C[C@H](CN4CC5(C4)OCc4cc(N6CC(C)(N)C6)ccc45)O[C@H](C)C3)ccc(C#N)c2n1` [Example 11, 5-[(2S,6R)-2-[[6-(3-amino-3-methyl-azetidin-1-yl)spiro[1H-isobenzofuran-3,3′-azetidine]-1′-yl]methyl]-6-methyl-morpholin-4-yl]-2-deuterio-quinoline-8-carbonitrile], the “CYP (%) 3A4” value (CYP3A4) was 12%, the “CYP (%) 2D6” value (CYP2D6) was 5.5% and the “CYP (%) 2C9” value (CYP2C9) was 4%. For the same compound, the IC50 (hERG channel) was > 20 µM and the IC20 (hERG channel) was 6.2 µM.
In the case of `C[C@@H]1CN(c2ccc(C#N)c3ncccc23)C[C@H](CN2CC(NS(=O)(=O)c3ccc(F)cc3)C2)O1` [ER-894155], the IC50 (hTLR9) is given as > 10 µM.
In the case of `Cc1nn(C)cc1S(=O)(=O)NC1CCN(C[C@H]2CN(c3ccc(C#N)c4ncccc34)C[C@@H](C)O2)CC1` [ER-894160], the IC50 (hTLR9) is listed as > 10 µM.
`[2H]c1ccc2c(N3C[C@H](CN4CC5(C4)OCc4cc(N6CC7(CNCCO7)C6)ccc45)O[C@H](C)C3)ccc(C#N)c2n1` [Example 15, 2-deuterio-5-[(2R,6S)-2-methyl-6-[[6-(5-oxa-2,8-diazaspiro[3.5]nonan-2-yl)spiro[1H-isobenzofuran-3,3′-azetidine]-1′-yl]methyl]morpholin-4-yl]quinoline-8-carbonitrile] showed an IC50 (human TLR8) of 0.009 µM.
For `C[C@@H]1CN(c2ccc(C#N)c3ncccc23)C[C@H](CN2CC[C@@H](NC(=O)c3ccccc3)C2)O1` [ER-894544], the IC50 (hTLR9) is given as > 6.2 µM.
